Measured values reported in PMC6017454, “A Xylenol Orange-Based Screening Assay for the Substrate Specificity of Flavin-Dependent para-Phenol Oxidases” (Molecules : A Journal of Synthetic Chemistry and Natural …, 2018).

What was measured:
[1] = molecular target: T1, His-VAO (vanillyl alcohol oxidase) (Penicillium simplicissimum, UniProt P56216); test: flavin absorption spectrum; trichloroacetic acid precipitation; type: binding; settings: covalent; co-purified
T1 construct: gene VAOA; N-terminal 6xHis tag plus single Gly, tag kept; codon-optimised, E. coli BL21; covalent FAD; VAO predominantly octameric

[2] = molecular target: T2, EUGO-His (eugenol oxidase) (Rhodococcus jostii, UniProt Q0SBK1); test: as above; type: binding; settings: covalent; co-purified
T2 construct: gene RHA1_ro03282; E. coli TOP10; covalent FAD; EUGO dimeric
T2 sequence (Q0SBK1 1-526): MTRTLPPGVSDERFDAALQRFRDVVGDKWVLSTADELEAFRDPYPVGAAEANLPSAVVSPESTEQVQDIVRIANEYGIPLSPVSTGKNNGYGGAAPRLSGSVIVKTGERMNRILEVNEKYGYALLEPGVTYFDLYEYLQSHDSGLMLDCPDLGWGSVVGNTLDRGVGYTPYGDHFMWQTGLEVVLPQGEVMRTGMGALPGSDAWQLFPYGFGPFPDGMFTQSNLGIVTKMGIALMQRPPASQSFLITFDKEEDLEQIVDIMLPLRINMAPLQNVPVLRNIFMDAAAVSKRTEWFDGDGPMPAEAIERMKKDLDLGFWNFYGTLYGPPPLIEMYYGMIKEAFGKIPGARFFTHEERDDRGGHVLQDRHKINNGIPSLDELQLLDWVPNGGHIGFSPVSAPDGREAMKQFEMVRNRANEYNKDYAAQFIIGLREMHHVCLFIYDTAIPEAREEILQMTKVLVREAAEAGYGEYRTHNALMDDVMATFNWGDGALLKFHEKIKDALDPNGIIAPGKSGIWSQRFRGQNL

T1 sequence (P56216 whole entry): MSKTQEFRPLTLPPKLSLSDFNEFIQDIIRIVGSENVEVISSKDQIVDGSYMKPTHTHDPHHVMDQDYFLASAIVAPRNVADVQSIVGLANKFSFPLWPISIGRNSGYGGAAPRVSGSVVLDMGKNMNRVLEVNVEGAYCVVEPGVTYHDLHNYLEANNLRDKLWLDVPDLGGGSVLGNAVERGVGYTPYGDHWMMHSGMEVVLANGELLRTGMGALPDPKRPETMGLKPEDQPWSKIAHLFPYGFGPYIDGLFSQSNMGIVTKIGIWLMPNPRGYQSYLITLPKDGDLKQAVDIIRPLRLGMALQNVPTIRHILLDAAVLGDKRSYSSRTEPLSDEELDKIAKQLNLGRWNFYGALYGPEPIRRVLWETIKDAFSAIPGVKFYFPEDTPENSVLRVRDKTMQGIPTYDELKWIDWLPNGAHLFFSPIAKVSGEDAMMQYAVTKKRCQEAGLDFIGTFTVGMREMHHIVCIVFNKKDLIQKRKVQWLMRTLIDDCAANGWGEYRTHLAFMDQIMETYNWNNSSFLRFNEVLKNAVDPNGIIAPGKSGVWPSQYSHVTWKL

Cc1cc2nc3c(=O)[nH]c(=O)nc-3n(C[C@H](O)[C@H](O)[C@H](O)COP(=O)(O)OP(=O)(O)OC[C@H]3O[C@@H](n4cnc5c(N)ncnc54)[C@H](O)[C@@H]3O)c2cc1C [FAD]
flavin absorption spectrum; trichloroacetic acid precipitation [1]: demonstrating that the flavin cofactor is covalently bound to the protein | flavin absorption spectrum; trichloroacetic acid precipitation [2]: demonstrating that the flavin cofactor is covalently bound to the protein
